Tests used:
rose varieties [1] = assay: Crop safety trials in Holland during the winter / dark season; assay type: in vivo
Procedure: The following trials were conducted in Holland during the winter period / dark season, when the total light radiation level is less than 2000 W/m^2 per day.
(§1) These treatments were applied to 8 different rose varieties, and phytotoxicity assessments made at 7 day intervals. A phytotoxicity score of greater than 2.0% indicates unacceptable phytotoxicity; a score of 1.0 to 2.0% is acceptable (but not ideal); a score of less than 1.0% is good.

rose varieties [2] = assay: Crop safety trials in Holland in April (summer trials); assay type: in vivo; conditions: Cv. Red Naomi
Procedure: as §1
Corresponding trials were conducted using selected treatments from table 9 above, in Holland in April, when the total light radiation level is above 2000 W/m^2 per day.

[3] = Cv. Grand Prix, 7DAA1 (7 days after first application)
[4] = Cv. Grand Prix, <2000 W/m^2 per day, 0DAA0

Compound | Percentage phytotoxicity (%) (rose varieties [1]; [3]) | Percentage phytotoxicity (%) (rose varieties [1]; Cv. Grand Prix, 7DAA2) | Percentage phytotoxicity (%) (rose varieties [1]; Cv. Grand Prix, 7DAA3) | Percentage phytotoxicity (%) (rose varieties [1]; Cv. Grand Prix, 14DAA3) | Percentage phytotoxicity (%) (rose varieties [1]; Cv. Grand Prix, 21DAA3) | Percentage phytotoxicity (%) (rose varieties [1]; [4]) | Percentage phytotoxicity (%) (rose varieties [1]; Cv. Red Naomi, 0DAA0) | Percentage phytotoxicity (%) (rose varieties [1]; Cv. Red Naomi, 6DAA2) | Percentage phytotoxicity (%) (rose varieties [1]; Cv. Red Naomi, 7DAA1) | Percentage phytotoxicity (%) (rose varieties [1]; Cv. Red Naomi, 7DAA3) | Percentage phytotoxicity (%) (rose varieties [1]; Cv. Red Naomi, 18DAA3) | Percentage phytotoxicity (%) (rose varieties [2]; 7DAA1) | Percentage phytotoxicity (%) (rose varieties [2]; 7DAA2) | Percentage phytotoxicity (%) (rose varieties [2]; 7DAA3) | Percentage phytotoxicity (%) (rose varieties [2]; 14DAA3) | Percentage phytotoxicity (%) (rose varieties [2]; >2000 W/m^2 per day, 0DAA0)
CCCC(Cn1cncn1)c1ccc(Cl)cc1Cl (stereo not drawn) [Treatment 8] | 0.0% | 0.0% | 1.3% | 0.0% | 0.0% | 0.0% | 0.0% | 0.7% | 1.3% | 0.7% | 0.0% | 0.0% | 0.0% | 0.0% | 0.0% | 0.0%
CCCC(Cn1cncn1)c1ccc(Cl)cc1Cl (stereo not drawn) [Treatment 9] | 0.0% | 0.0% | 4.0% | 2.0% | 0.3% | 0.0% | 0.0% | 1.7% | 2.7% | 3.0% | 0.7% |  |  |  |  | 
